Results taken from US8609362B2, “G-proteins” (Givaudan SA, priority 2002, dated 2013).

Legend:
Type in all cases: cell-based
human TAS2R43 = biological target: T1, human TAS2R43 (Homo sapiens, UniProt P59537); test: Fluo-4 calcium assay, tetracycline-inducible cells stably expressing human TAS2R43 and G16gust44; conditions: ligand 10 μM
T1 construct: expressed in transfected cells
T1 sequence (P59537 1-309): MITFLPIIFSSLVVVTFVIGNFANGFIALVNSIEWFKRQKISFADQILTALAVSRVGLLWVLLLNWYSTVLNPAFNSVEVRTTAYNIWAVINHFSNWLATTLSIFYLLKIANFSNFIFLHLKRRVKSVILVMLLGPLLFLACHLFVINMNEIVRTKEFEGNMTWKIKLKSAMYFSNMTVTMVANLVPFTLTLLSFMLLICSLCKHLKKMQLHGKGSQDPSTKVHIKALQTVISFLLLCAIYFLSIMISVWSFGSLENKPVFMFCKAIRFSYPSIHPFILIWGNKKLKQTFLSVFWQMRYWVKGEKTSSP
Excerpt: (§1) The following results were obtained:

G-protein only [1] = test: Fluo-4 calcium assay, G-protein only control (TAS2R43 cell line); conditions: Gα16gustducin44, ligand 10 μM
Excerpt: as §1

human TAS2R44 = biological target: T2, human TAS2R44 (Homo sapiens, UniProt P59538); test: Fluo-4 calcium assay, tetracycline-inducible cells stably expressing human TAS2R44 and G16gust44; conditions: ligand 10 μM
T2 construct: expressed in transfected cells
T2 sequence (P59538 1-309): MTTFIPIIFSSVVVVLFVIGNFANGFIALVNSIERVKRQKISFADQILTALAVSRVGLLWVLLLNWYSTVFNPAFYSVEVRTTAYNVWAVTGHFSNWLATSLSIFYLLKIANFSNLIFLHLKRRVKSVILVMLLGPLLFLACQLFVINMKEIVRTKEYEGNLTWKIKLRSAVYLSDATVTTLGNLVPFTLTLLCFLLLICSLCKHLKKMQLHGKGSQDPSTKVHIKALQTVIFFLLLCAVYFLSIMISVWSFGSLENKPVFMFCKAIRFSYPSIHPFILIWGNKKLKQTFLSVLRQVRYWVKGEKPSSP
Excerpt: as §1

G-protein only [2] = test: Fluo-4 calcium assay, G-protein only control (TAS2R44 cell line); conditions: Gα16gustducin44, ligand 10 μM
Excerpt: as §1

COc1cccc2c1cc([N+](=O)[O-])c1c(C(=O)O)cc3c(c12)OCO3 [aristolochic acid]
increase in mean fluorescence over baseline following ligand addition (human TAS2R43; G-protein + human TAS2R43, Gα16gustducin44): 26766 RFUs | fluorescence signal (in words) (human TAS2R43; HEK293 T-Rex cells, TAS2R43, G16-gustducin 44): robust fluorescence signal | increase in mean fluorescence over baseline following ligand addition (G-protein only [1]): 3955 RFUs | increase in mean fluorescence over baseline following ligand addition (human TAS2R44; G-protein + human TAS2R44, Gα16gustducin44): 17254 RFUs | fluorescence signal (in words) (human TAS2R44; HEK293 T-Rex cells, TAS2R44, G16-gustducin 44): robust fluorescence signal | increase in mean fluorescence over baseline following ligand addition (G-protein only [2]): 5700 RFUs
